Measured values taken from paper PMC12797170, “Potent Competitive Inhibitors of Ecto-5′-nucleotidase (CD73) based on 6‑(Het)aryl-7-deazapurine Ribonucleoside 5′‑O‑Bisphosphonates” (ACS Pharmacology & Translational Science, 2025).
≈ marks a conversion by molar mass, not a printed value.

Columns and labels:
[1] = target: T1, recombinant human CD73 (hCD73) (Homo sapiens, UniProt P21589); assay: CD73 activity assay on recombinant human CD73; assay type: biochemical; details: ΔGexp = RT ln Ki
T1 sequence (P21589 27-574): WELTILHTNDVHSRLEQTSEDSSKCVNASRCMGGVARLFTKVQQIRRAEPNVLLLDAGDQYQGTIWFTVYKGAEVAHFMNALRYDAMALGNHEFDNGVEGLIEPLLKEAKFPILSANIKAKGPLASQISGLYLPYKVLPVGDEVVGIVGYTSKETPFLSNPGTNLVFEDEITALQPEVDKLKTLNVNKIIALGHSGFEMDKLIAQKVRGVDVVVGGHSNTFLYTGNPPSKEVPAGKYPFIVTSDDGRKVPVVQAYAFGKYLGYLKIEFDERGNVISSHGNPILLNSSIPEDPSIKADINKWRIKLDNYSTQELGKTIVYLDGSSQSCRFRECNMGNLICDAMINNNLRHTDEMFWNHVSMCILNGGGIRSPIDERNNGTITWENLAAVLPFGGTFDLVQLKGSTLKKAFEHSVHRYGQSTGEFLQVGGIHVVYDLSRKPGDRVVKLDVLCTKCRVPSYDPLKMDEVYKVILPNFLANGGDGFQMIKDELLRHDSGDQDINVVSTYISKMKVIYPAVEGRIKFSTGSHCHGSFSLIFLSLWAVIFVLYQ

[2] = Plasma protein binding, equilibrium dialysis, human plasma; assay type: in vitro ADME; details: undiluted plasma
Method: (§1) Plasma protein binding of the investigated compounds was determined using equilibrium dialysis in single-use Rapid Equilibrium Dialysis devices with an 8 kDa molecular weight cutoff (Thermo Fisher Scientific), following the manufacturer’s protocol. In brief, 50 μL of undiluted human plasma (Biowest), spiked with the test compound at a final concentration of 100 μM, was added to the sample chamber, while 300 μL of phosphate-buffered saline (PBS) was placed in the buffer chamber. Devices were incubated for 4 h at 37 °C with gentle shaking.
(§2) After dialysis, 7.5 μL aliquots from both the plasma and buffer chambers were transferred directly into wells of a 384-well plate. To equalize the matrices for downstream processing, 7.5 μL of PBS was added to each plasma aliquot, and 7.5 μL of plasma was added to each buffer aliquot. Proteins were precipitated by adding four volumes of ice-cold methanol to each well, followed by thorough mixing and incubation at – 20 °C for 30 min. Plates were then stored overnight at 8 °C. Prior to analysis, the plate was centrifuged at 2,000 × g for 20 min at 8 °C. […] The fraction of unbound compound was calculated using the following equations: %Free=c(bufferchamber)/c(plasmachamber)*100% %Bound=100%−%Free

[3] = Plasma protein binding, mouse plasma; assay type: in vitro ADME; details: mouse, plasma, mouse plasma protein binding; read-out: PPB (m) (converted)
Method: as §1, §2

[4] = Kinetic solubility in PBS; assay type: physicochemical; details: phosphate-buffered saline, pH 7.4, aqueous buffer, kinetic from dmso stock
Method: Test compounds were prepared as 10 mM stock solutions in DMSO and diluted in phosphate-buffered saline (PBS, pH 7.4) to a 100 μM solution, which was then aliquoted in duplicate. The duplicate samples were incubated in Multiscreen PCF Filter Plates (Merck Millipore) with sealed bottom at room temperature on a shaker for 2 h to allow equilibration. Following incubation, the samples were centrifuged into nonsterile, flat-bottom 96-well plates at 2,200 RCF for 12 min. Supernatants were then diluted 1:99 in a solution of 50% acetonitrile containing 0.1% DMSO. The diluted samples were transferred to 384-well Echo plates, which contained prespotted calibration standards prepared by Echo transfer of 10 mM and 1 mM DMSO stock solutions, resulting in calibration points ranging from 0.05 to 4 μM. Samples and standards were subsequently analyzed by Echo-MS.

[5] = Microsomal stability assay, human liver microsomes; assay type: in vitro ADME; details: for Mics (hu) comp remaining 60 min: 10 μM; for microsomal CLint at 10 µM: pooled liver microsomes, pH 7.4, read-out: Mics (hu) CLint
[6] = Microsomal stability assay, mouse liver microsomes; assay type: in vitro ADME; details: for microsomal CLint at 10 µM: pooled liver microsomes, pH 7.4, read-out: Mics (m) CLint; for Mics (m) comp remaining 60 min: 10 μM
[7] = system: CCRF-CEM; assay: In vitro cytotoxic activity; assay type: cell-based; details: Homo sapiens
Method: (§3) All the compounds were also tested for their in vitro cytotoxic activity on a small panel of four cancer cell lines (CCRF-CEM, HepG2, HeLa S3, HL-60) and nonmalignant human dermal fibroblasts (NHDF).

[8] = system: HL-60; assay: In vitro cytotoxic activity; assay type: cell-based; details: Homo sapiens
Method: as §3

[9] = system: HeLa S3; assay: In vitro cytotoxic activity; assay type: cell-based; details: Homo sapiens
Method: as §3

[10] = system: HepG2; assay: In vitro cytotoxic activity; assay type: cell-based; details: Homo sapiens
Method: as §3

[11] = system: nonmalignant human dermal fibroblasts (NHDF); assay: In vitro cytotoxic activity; assay type: cell-based
Method: as §3

[12] = in vitro; details: human, plasma
[13] = in vitro; details: mouse, plasma
[14] = human plasma protein binding, read-out: PPB (hu) (converted)

SMILES	dG_exp, experimental binding free energy [1]	fraction unbound at 4 h, 100 µM ([2]; Tables 1 and 3, human plasma as printed in footnote, read-out: fup, fraction unbound in human plasma)	fraction unbound at 4 h, 100 µM [2, 14]	fraction unbound at 4 h, 100 µM [3]	solubility at 2 h [4]	Mics (hu) comp remaining 60 min [5]	microsomal CLint at 10 µM [5]	microsomal CLint at 10 µM [6]	half-life at 10 µM [12]	half-life at 10 µM [13]	Mics (m) comp remaining 60 min [6]	IC50 [7]	IC50 [8]	IC50 [9]	IC50 [10]	IC50 [11]
COc1nc(-c2ccc3ccccc3c2)c2ccn([C@@H]3O[C@H](COP(=O)(O)CP(=O)(O)O)[C@@H](O)[C@H]3O)c2n1 [21F.7, [(5-{[2-Methoxy-4-(naphthalen-2-yl)-7H-pyrrolo[2,3-d]pyrimidin-7-yl]-β-D-ribofuranosyl}oxy)phosphonomethyl]phosphonic Acid]	–13.4 kcal/mol	0.14	≤ 0.01	0.136	79 µM (≈ 44.7 µg/mL)	104%	< 1 µL/min/mg	< 1 µL/min/mg	> 2 h	> 2 h	–	> 10 µM	> 10 µM	> 10 µM	> 10 µM	> 10 µM
CC1(C)Cc2cc(-c3nc(Cl)nc4c3ccn4[C@@H]3O[C@H](COP(=O)(O)CP(=O)(O)O)[C@@H](O)[C@H]3O)ccc2O1 [7B.30]	–15.6 kcal/mol	–	≤ 0.01	0.229	86 µM (≈ 50.7 µg/mL)	102%	< 1 µL/min/mg	6 µL/min/mg	> 2 h	> 2 h	88%	> 10 µM	> 10 µM	> 10 µM	> 10 µM	> 10 µM
Cc1nc(-c2cccc3c2CCCC3)c2ccn([C@@H]3O[C@H](COP(=O)(O)CP(=O)(O)O)[C@@H](O)[C@H]3O)c2n1 [18E.12]	–14.4 kcal/mol	–	0.022	0.323	80 µM (≈ 44.3 µg/mL)	108%	< 1 µL/min/mg	< 1 µL/min/mg	> 2 h	> 2 h	106%	> 10 µM	> 10 µM	> 10 µM	> 10 µM	> 10 µM
O=P(O)(O)CP(=O)(O)OC[C@H]1O[C@@H](n2cnc3c(-c4cccc5c4CCCC5)ncnc32)[C@H](O)[C@@H]1O [31A.12]	–11.8 kcal/mol	–	0.084	0.509	80 µM (≈ 43.2 µg/mL)	102%	< 1 µL/min/mg	6 µL/min/mg	> 2 h	> 2 h	88%	> 10 µM	> 10 µM	> 10 µM	> 10 µM	> 10 µM
O=P(O)(O)CP(=O)(O)OC[C@H]1O[C@@H](n2ccc3c(-c4cccc5c4OCCC5)ncnc32)[C@H](O)[C@@H]1O [4A.13]	–12.8 kcal/mol	–	0.108	0.594	81 µM (≈ 43.9 µg/mL)	96%	1 µL/min/mg	1 µL/min/mg	> 2 h	> 2 h	94%	> 10 µM	> 10 µM	> 10 µM	> 10 µM	> 10 µM

Further lines, with some results ahead:

dG_exp, experimental binding free energy [1]	fraction unbound at 4 h, 100 µM ([2]; Tables 1 and 3, human plasma as printed in footnote, read-out: fup, fraction unbound in human plasma)	fraction unbound at 4 h, 100 µM [2, 14]	fraction unbound at 4 h, 100 µM [3]	solubility at 2 h [4]	Mics (hu) comp remaining 60 min [5]	microsomal CLint at 10 µM [5]	microsomal CLint at 10 µM [6]	half-life at 10 µM [12]	half-life at 10 µM [13]	Mics (m) comp remaining 60 min [6]	SMILES	IC50 [7]	IC50 [8]	IC50 [9]	IC50 [10]	IC50 [11]
–12.7 kcal/mol	–	0.048	0.685	85 µM (≈ 45.6 µg/mL)	94%	< 1 µL/min/mg	< 1 µL/min/mg	> 2 h	> 2 h	105%	O=P(O)(O)CP(=O)(O)OC[C@H]1O[C@@H](n2ccc3c(-c4ccc5ncccc5c4)ncnc32)[C@H](O)[C@@H]1O [4A.19]	> 10 µM	3.1 µM	> 10 µM	> 10 µM	> 10 µM
–12.9 kcal/mol	–	0.113	0.948	66 µM (≈ 35.5 µg/mL)	92%	4 µL/min/mg	< 1 µL/min/mg	> 2 h	> 2 h	101%	O=P(O)(O)CP(=O)(O)OC[C@H]1O[C@@H](n2ccc3c(-c4ccc5cncnc5c4)ncnc32)[C@H](O)[C@@H]1O [4A.22]	9.9 µM	4.8 µM	> 10 µM	> 10 µM	> 10 µM
–12.9 kcal/mol	–	0.053	0.699	25 µM (≈ 11.9 µg/mL)	–	–	–	> 2 h	> 2 h	–	O=P(O)(O)CP(=O)(O)OC[C@H]1O[C@@H](n2ccc3c(-c4ccco4)ncnc32)[C@H](O)[C@@H]1O [4A.1, [(5-{[4-(Furan-2-yl)-7H-pyrrolo[2,3-d]pyrimidin-7-yl]-β-D-ribofuranosyl}oxy)phosphonomethyl]phosphonic Acid]	> 10 µM	3.7 µM	> 10 µM	> 10 µM	> 10 µM
–12.6 kcal/mol	–	0.095	0.788	80 µM (≈ 38.8 µg/mL)	–	–	–	> 2 h	> 2 h	–	O=P(O)(O)CP(=O)(O)OC[C@H]1O[C@@H](n2ccc3c(-c4ccccc4)ncnc32)[C@H](O)[C@@H]1O [4A.5]	> 10 µM	3.7 µM	> 10 µM	> 10 µM	> 10 µM
–13.1 kcal/mol	–	0.081	0.535	76 µM (≈ 37.3 µg/mL)	–	–	–	> 2 h	> 2 h	–	O=P(O)(O)CP(=O)(O)OC[C@H]1O[C@@H](n2ccc3c(-c4cccs4)ncnc32)[C@H](O)[C@@H]1O [4A.3]	9.9 µM	4.2 µM	> 10 µM	> 10 µM	> 10 µM
–12.5 kcal/mol	–	0.162	0.872	97 µM (≈ 46.1 µg/mL)	–	–	–	> 2 h	> 2 h	–	O=P(O)(O)CP(=O)(O)OC[C@H]1O[C@@H](n2ccc3c(-c4ccoc4)ncnc32)[C@H](O)[C@@H]1O [4A.2]	> 10 µM	2.8 µM	> 10 µM	> 10 µM	> 10 µM
